Assay results from PubChem BioAssay AID652156 (NMMLSC, 2013).
pEC50: −log10 of the molar value.

Tested on: ER-HoxA9 myeloid cells, GFP+/MAC1+ differentiation, flow cytometry
Assay: myeloid differentiation promoters in ER-HoxA9 cells, dose response, cell-based, flow cytometry, Powder Set01 (AID 652156)

For `O=C(O)c1cccnc1Nc1ccc(Cl)cc1`, the pEC50 was 5.88.
With `Cc1ccc(Nc2nc(=O)c3cccnc3s2)c(Br)c1` the pEC50 was 6.03.
Work on `O=C(CCNC(=O)c1ccc(Cl)cc1)NC1CCCc2ccccc21` (stereo not drawn) yielded a pEC50 of 5.68.
